# Reference: ChEMBL document CHEMBL5661943, “ASAP - In vitro antiviral effect” (2024)
# “And” between values parts separate entries of the source, which are not always exact repeats. Equal entries are not always repeated.
# Tests used:
# [1] = tested on: Zika virus; assay: EC50 is reported via analysis of immunofluorescence staining. The assay has been performed by Icahn School of Medicine at Mount Sinai.; type: functional, organism-based, Chlorocebus sabaeus, VeroE6/TMPRSS2; settings: for EC90: P-gp concentration 2 uM, P-gp inhibitor Elacidar
# [2] = tested on: dengue virus type 2; assay: Functional immunofluorescence assay to measure dose dependent changes in antiviral-drug inhibitory efficacy against Dengue virus type 2 Thailand/16681/84 in Vero E6/TMPRSS2 cells (cotreated with P-gp inhibitor, Elacridar). Cells are treated with antiviral candidates that are serially diluted, following infection, cells are fixed. EC50 is reported via analysis of immunofluorescence staining. The assay has been performed by Icahn School of Medicine at Mount Sinai.; type: organism-based, Chlorocebus sabaeus, VeroE6/TMPRSS2
# [3] = tested on: dengue virus type 2; assay: Functional assay to measure dose dependent changes in antiviral-drug inhibitory efficacy against Dengue virus type 2 New Guinea C in Vero E6 miRFP670 cells (cotreated with P-gp inhibitor, CP100356). Cells are treated with antiviral candidates that are serially diluted, following infection, cells are fixed. EC50 is reported via analysis of fluorescence intensity using high-content imager. The …; type: organism-based, Chlorocebus sabaeus, Vero C1008; settings: Dengue virus
compound,measurement,setting,value
CC(C)OC(=O)Nc1cc(Cl)cc(C(=O)Nc2cccc(CN)c2)c1,EC50,"[1]; Zika virus, VeroE6/TMPRSS2",> 16.7 µM
same,EC90,"[1]; Zika virus, VeroE6/TMPRSS2, Maximum measured 132.205 %, Minimum measured 71.008 %",> 16.7 µM
same,EC50,"[2]; Dengue virus, VeroE6/TMPRSS2",> 16.7 µM
same,EC90,"[2]; Dengue virus, VeroE6/TMPRSS2, Baseline response 0 %, Hill slope -10.347, Maximum measured 131.012 %, Maximum response 100 %, Minimum measured 66.05 %, P-gp concentration 2 uM, R squared 0.241, P-gp inhibitor Elacidar",> 16.7 µM
same,EC50,[3]; Vero C1008,> 6.25 µM
same,EC90,"[3]; Vero C1008, Maximum measured 143.842 %, Minimum measured 98.266 %, P-gp concentration 500 nM, P-gp inhibitor CP100356",> 6.25 µM
N#Cc1cc(Cl)cc([C@H](C#N)Nc2ccc3c(c2)CNC3)c1,EC50,"[1]; Zika virus, VeroE6/TMPRSS2",> 50 µM
same,EC90,"[1]; Zika virus, VeroE6/TMPRSS2, Baseline response 0 %, Hill slope -0.289, Maximum measured 115.578 %, Maximum response 100 %, Minimum measured 78.039 %, R squared 0.102",> 50 µM
same,EC50,"[2]; Dengue virus, VeroE6/TMPRSS2",> 16.7 µM
same,EC90,"[2]; Dengue virus, VeroE6/TMPRSS2, Maximum measured 121.447 %, Minimum measured 87.688 %, P-gp concentration 2 uM, P-gp inhibitor Elacidar",> 16.7 µM
NCc1cccc(NC(=O)C[C@H](NC(=O)OCc2ccccc2)c2ccc(OCc3ccccc3)c(Br)c2)c1,EC50,"[1]; Zika virus, VeroE6/TMPRSS2",1.7 µM
same,EC90,"[1]; Zika virus, VeroE6/TMPRSS2, Baseline response 0 %, Hill slope -0.518, Maximum measured 120.113 %, Maximum response 100 %, Minimum measured 9.459 %, R squared 0.639",> 50 µM
same,EC50,"[2]; Dengue virus, VeroE6/TMPRSS2",> 16.7 µM
same,EC90,"[2]; Dengue virus, VeroE6/TMPRSS2, Baseline response 0 %, Hill slope 0.065, Maximum measured 60.527 %, Maximum response 100 %, Minimum measured 30.522 %, P-gp concentration 2 uM, R squared 0.087, P-gp inhibitor Elacidar",> 16.7 µM
NCc1cccc(NC(=O)c2cc(Cl)cc(CN)c2)c1,EC90,"[1]; Zika virus, VeroE6/TMPRSS2, Maximum measured 123.027 %, Minimum measured 86.3 %",> 50 µM
same,EC90,"[1]; Zika virus, VeroE6/TMPRSS2, Baseline response 0 %, Hill slope -0.468, Maximum measured 130.938 %, Maximum response 100 %, Minimum measured 51.052 %, R squared 0.396",> 3.33 µM
same,EC50,[1]; veroe6/tmprss2,> 50 µM
same,EC90,"[2]; Baseline response 0 %, Hill slope -0.259, Maximum measured 118.193 %, Maximum response 100 %, Minimum measured 55.278 %, P-gp concentration 2 uM, R squared 0.275, P-gp inhibitor Elacidar",> 10 µM
same,EC90,"[2]; Baseline response 0 %, Hill slope -0.379, Maximum measured 148.524 %, Maximum response 100 %, Minimum measured 29.621 %, P-gp concentration 2 uM, R squared 0.276, P-gp inhibitor Elacidar",> 50 µM
same,EC50,[2]; veroe6/tmprss2,> 10 µM and 48.2 µM
CC[C@H](Cc1nnn[nH]1)c1ccc(NC(=O)[C@H]2[C@H]3CCCCC[C@H]3[C@H]2NC(=O)OCc2ccccc2)cc1,EC50,"[1]; Zika virus, VeroE6/TMPRSS2",> 50 µM
same,EC90,"[1]; Zika virus, VeroE6/TMPRSS2, Baseline response 0 %, Hill slope -0.151, Maximum measured 102.715 %, Maximum response 100 %, Minimum measured 55.5 %, R squared 0.202",> 50 µM
same,EC50,"[2]; Dengue virus, VeroE6/TMPRSS2",16.1 µM
same,EC90,"[2]; Dengue virus, VeroE6/TMPRSS2",44.8 µM
CCOC(=O)[C@H]1[C@H](c2cc(Cl)cc(NC(=O)OCc3ccccc3)c2)[C@H]1c1cccc(-c2nnn[nH]2)c1,EC50,"[1]; Zika virus, VeroE6/TMPRSS2",39.5 µM
same,EC90,"[1]; Zika virus, VeroE6/TMPRSS2, Baseline response 0 %, Hill slope -17.688, Maximum measured 145.242 %, Maximum response 100 %, Minimum measured 1.538 %, R squared 0.641",44.8 µM
same,EC50,"[2]; Dengue virus, VeroE6/TMPRSS2",10.1 µM
same,EC90,"[2]; Dengue virus, VeroE6/TMPRSS2, Baseline response 0 %, Hill slope -0.678, Maximum measured 159.228 %, Maximum response 100 %, Minimum measured 7.966 %, P-gp concentration 2 uM, R squared 0.513, P-gp inhibitor Elacidar",> 50 µM
NCc1cccc(NC(=O)c2cc(Cl)cc(N3CCCC3=O)c2)c1,EC90,"[1]; Baseline response 0 %, Hill slope 0.118, Maximum measured 129.177 %, Maximum response 100 %, Minimum measured 53.613 %, R squared 0.041",> 10 µM
same,EC90,"[1]; Baseline response 0 %, Hill slope -0.203, Maximum measured 140.608 %, Maximum response 100 %, Minimum measured 78.837 %, R squared 0.028",> 50 µM
same,EC50,[1]; veroe6/tmprss2,> 50 µM
same,EC90,"[2]; Dengue virus, VeroE6/TMPRSS2, Maximum measured 120.219 %, Minimum measured 55.49 %, P-gp concentration 2 uM, P-gp inhibitor Elacidar",> 10 µM
same,EC90,"[2]; Dengue virus, VeroE6/TMPRSS2, Baseline response 0 %, Hill slope 0.068, Maximum measured 98.172 %, Maximum response 100 %, Minimum measured 58.193 %, P-gp concentration 2 uM, R squared 0.052, P-gp inhibitor Elacidar",> 50 µM
same,EC50,[2]; veroe6/tmprss2,> 50 µM
NCc1cccc(NC(=O)c2cc(Cl)cc(NC(=O)OCc3ccccc3)c2)c1,EC90,"[1]; Baseline response 0 %, Hill slope -0.215, Maximum measured 128.419 %, Maximum response 100 %, Minimum measured 50.213 %, R squared 0.105",> 3.33 µM
same,EC90,"[1]; Baseline response 0 %, Hill slope -0.764, Maximum measured 71.895 %, Maximum response 50 %, Minimum measured 1.714 %, R squared 0.465",> 16.7 µM
same,EC90,"[1]; Baseline response 0 %, Hill slope -1.05, Maximum measured 125.373 %, Maximum response 100 %, Minimum measured 37.992 %, R squared 0.488",> 5.56 µM
same,EC50,[1]; veroe6/tmprss2,> 3.33 µM and 2.02 µM and 1.2 µM
same,EC90,"[2]; Baseline response 0 %, Hill slope 0.299, Maximum measured 124.416 %, Maximum response 100 %, Minimum measured 54.583 %, P-gp concentration 2 uM, R squared 0.188, P-gp inhibitor Elacidar",> 10 µM
same,EC90,"[2]; Baseline response 0 %, Hill slope -0.071, Maximum measured 76.87 %, Maximum response 100 %, Minimum measured 49.245 %, P-gp concentration 2 uM, R squared 0.036, P-gp inhibitor Elacidar",> 1.85 µM
same,EC90,"[2]; Baseline response 0 %, Hill slope -0.258, Maximum measured 121.337 %, Maximum response 100 %, Minimum measured 68.392 %, P-gp concentration 2 uM, R squared 0.156, P-gp inhibitor Elacidar",> 5.56 µM
same,EC50,[2]; veroe6/tmprss2,> 10 µM
O=C(NCC1CCOCC1)[C@H](Nc1ccc2c(c1)CNC2)c1cc(Cl)cc2[nH]ncc12,EC50,"[1]; Zika virus, VeroE6/TMPRSS2",> 16.7 µM
same,EC90,"[1]; Zika virus, VeroE6/TMPRSS2, Maximum measured 73.647 %, Minimum measured 25.821 %",> 16.7 µM
same,EC50,"[2]; Dengue virus, VeroE6/TMPRSS2",> 16.7 µM
same,EC90,"[2]; Dengue virus, VeroE6/TMPRSS2, Maximum measured 245.258 %, Minimum measured 99.219 %, P-gp concentration 2 uM, P-gp inhibitor Elacidar",> 16.7 µM
CC[C@H](Cc1nnn[nH]1)c1ccc(NC(=O)c2cc(Cl)cc(C3CC3)c2)cc1,EC50,"[1]; Zika virus, VeroE6/TMPRSS2",> 50 µM
same,EC90,"[1]; Zika virus, VeroE6/TMPRSS2, Maximum measured 167.989 %, Minimum measured 95.132 %",> 50 µM
same,EC50,"[2]; Dengue virus, VeroE6/TMPRSS2",> 16.7 µM
same,EC90,"[2]; Dengue virus, VeroE6/TMPRSS2, Maximum measured 194.23 %, Minimum measured 94.649 %, P-gp concentration 2 uM, P-gp inhibitor Elacidar",> 16.7 µM
NCc1ccc(F)c(NC(=O)c2cc(Cl)cc(NC(=O)OCc3ccccc3)c2)c1,EC50,"[1]; Zika virus, VeroE6/TMPRSS2",> 5.56 µM
same,EC90,"[1]; Zika virus, VeroE6/TMPRSS2, Maximum measured 191.718 %, Minimum measured 113.213 %",> 5.56 µM
same,EC50,"[2]; Dengue virus, VeroE6/TMPRSS2",> 5.56 µM
same,EC90,"[2]; Dengue virus, VeroE6/TMPRSS2, Maximum measured 158.385 %, Minimum measured 97.578 %, P-gp concentration 2 uM, P-gp inhibitor Elacidar",> 5.56 µM
CC(=O)Nc1cc(Cl)cc(C(=O)Nc2cccc(CN)c2)c1,EC50,"[1]; Zika virus, VeroE6/TMPRSS2",> 50 µM
same,EC90,"[1]; Zika virus, VeroE6/TMPRSS2, Baseline response 0 %, Hill slope 0.296, Maximum measured 131.154 %, Maximum response 100 %, Minimum measured 80.704 %, R squared 0.041",> 50 µM
same,EC50,"[2]; Dengue virus, VeroE6/TMPRSS2",> 16.7 µM
same,EC90,"[2]; Dengue virus, VeroE6/TMPRSS2, Maximum measured 143.919 %, Minimum measured 91.997 %, P-gp concentration 2 uM, P-gp inhibitor Elacidar",> 16.7 µM
O=C(O)c1cc(Cl)ccc1S(=O)(=O)NC1CCN(c2nc(C3CC3)cc(C(F)(F)F)n2)CC1,EC90,"[1]; Zika virus, VeroE6/TMPRSS2, Maximum measured 121.005 %, Minimum measured 84.589 %",> 16.7 µM
same,EC90,"[1]; Zika virus, VeroE6/TMPRSS2, Baseline response 0 %, Hill slope -0.273, Maximum measured 117.096 %, Maximum response 100 %, Minimum measured 55.547 %, R squared 0.133",> 3.33 µM
same,EC50,[1]; veroe6/tmprss2,> 16.7 µM
same,EC90,"[2]; Dengue virus, VeroE6/TMPRSS2, Maximum measured 136.17 %, Minimum measured 94.607 %, P-gp concentration 2 uM, P-gp inhibitor Elacidar",> 16.7 µM
same,EC90,"[2]; Dengue virus, VeroE6/TMPRSS2, Baseline response 0 %, Hill slope -0.112, Maximum measured 104.285 %, Maximum response 100 %, Minimum measured 47.241 %, P-gp concentration 2 uM, R squared 0.035, P-gp inhibitor Elacidar",> 3.33 µM
same,EC50,[2]; veroe6/tmprss2,> 16.7 µM
NS(=O)(=O)c1ccc(C2CCN(Cc3c[nH]c4ccccc34)CC2)cc1,EC90,"[1]; Zika virus, VeroE6/TMPRSS2, Maximum measured 220.71 %, Minimum measured 69.091 %",> 10 µM
same,EC90,"[1]; Zika virus, VeroE6/TMPRSS2, Baseline response 0 %, Hill slope -0.394, Maximum measured 150.63 %, Maximum response 100 %, Minimum measured 65.565 %, R squared 0.026",> 50 µM
same,EC50,[1]; veroe6/tmprss2,> 50 µM
same,EC50,"[2]; Dengue virus, VeroE6/TMPRSS2",> 50 µM
same,EC90,"[2]; Dengue virus, VeroE6/TMPRSS2, Baseline response 0 %, Hill slope -0.438, Maximum measured 120.121 %, Maximum response 100 %, Minimum measured 70.269 %, P-gp concentration 2 uM, R squared 0.213, P-gp inhibitor Elacidar",> 50 µM
CC[C@H](Cc1nn[nH]n1)c1ccc(N[C@H](C(=O)NC)c2cc(Cl)cc(NC(=O)OCc3ccccc3)c2)cc1,EC50,"[1]; Zika virus, VeroE6/TMPRSS2",> 50 µM
same,EC90,"[1]; Zika virus, VeroE6/TMPRSS2, Maximum measured 168.95 %, Minimum measured 107.074 %",> 50 µM
same,EC50,"[2]; Dengue virus, VeroE6/TMPRSS2",> 50 µM
same,EC90,"[2]; Dengue virus, VeroE6/TMPRSS2, Baseline response 0 %, Hill slope -0.218, Maximum measured 117.472 %, Maximum response 100 %, Minimum measured 37.097 %, P-gp concentration 2 uM, R squared 0.193, P-gp inhibitor Elacidar",> 50 µM
CCOc1cccc(-c2ccc(S(=O)(=O)Nc3cc4c(cc3C(=O)O)CCC4)cc2)c1,EC50,"[1]; Zika virus, VeroE6/TMPRSS2",> 50 µM
same,EC90,"[1]; Zika virus, VeroE6/TMPRSS2, Baseline response 0 %, Hill slope -16.078, Maximum measured 130.08 %, Maximum response 100 %, Minimum measured 52.734 %, R squared 0.304",> 50 µM
same,EC50,"[2]; Dengue virus, VeroE6/TMPRSS2",> 16.7 µM
same,EC90,"[2]; Dengue virus, VeroE6/TMPRSS2, Baseline response 0 %, Hill slope -0.37, Maximum measured 131.408 %, Maximum response 100 %, Minimum measured 56.89 %, P-gp concentration 2 uM, R squared 0.244, P-gp inhibitor Elacidar",> 16.7 µM
